Data from US9340547B2, “Pyrrolotriazinone derivatives as inhibitors P13K” (Almirall, S.A., priority 2011, dated 2016).
pIC50: −log10 of the molar value.

The molecules below were run against T1, PI3Kδ (PI3 Kd) (Homo sapiens, UniProt O00329) (assay: PI3K HTRF enzymatic inhibition assay (cell-free), PI3Kd). Conditions: not given.
T1 construct: purchased Millipore
Type: biochemical
Procedure: PI3K α, β, δ and γ Enzymatic Inhibition Assays
Compounds were screened for their ability to inhibit PI3Kα (PI3Kα), PI3Kβ (PI3 Kb), PI3Kδ (PI3 Kd) and PI3Kγ (PI3 Kg) using a cell-free based PI3K HTRF™ assay (Millipore, ref. #33-017) All reagents to perform the reactions were prepared according to the manufacturer protocol. All PI3K enzymes were recombinant and were purchased at Millipore.
These concentrations were final in the assay. • 3) A reservoir plate containing Adenosine TriPhosphate (ATP) diluted in the Millipore kit buffer was prepared for each isoform. […] Incubation was done for 8 minutes (for all four isoforms) then the reaction was stopped by addition of the Stop solution. The Detection solution was added. These solutions were prepared previously according to the kit specifications.

T1 sequence (O00329 whole entry): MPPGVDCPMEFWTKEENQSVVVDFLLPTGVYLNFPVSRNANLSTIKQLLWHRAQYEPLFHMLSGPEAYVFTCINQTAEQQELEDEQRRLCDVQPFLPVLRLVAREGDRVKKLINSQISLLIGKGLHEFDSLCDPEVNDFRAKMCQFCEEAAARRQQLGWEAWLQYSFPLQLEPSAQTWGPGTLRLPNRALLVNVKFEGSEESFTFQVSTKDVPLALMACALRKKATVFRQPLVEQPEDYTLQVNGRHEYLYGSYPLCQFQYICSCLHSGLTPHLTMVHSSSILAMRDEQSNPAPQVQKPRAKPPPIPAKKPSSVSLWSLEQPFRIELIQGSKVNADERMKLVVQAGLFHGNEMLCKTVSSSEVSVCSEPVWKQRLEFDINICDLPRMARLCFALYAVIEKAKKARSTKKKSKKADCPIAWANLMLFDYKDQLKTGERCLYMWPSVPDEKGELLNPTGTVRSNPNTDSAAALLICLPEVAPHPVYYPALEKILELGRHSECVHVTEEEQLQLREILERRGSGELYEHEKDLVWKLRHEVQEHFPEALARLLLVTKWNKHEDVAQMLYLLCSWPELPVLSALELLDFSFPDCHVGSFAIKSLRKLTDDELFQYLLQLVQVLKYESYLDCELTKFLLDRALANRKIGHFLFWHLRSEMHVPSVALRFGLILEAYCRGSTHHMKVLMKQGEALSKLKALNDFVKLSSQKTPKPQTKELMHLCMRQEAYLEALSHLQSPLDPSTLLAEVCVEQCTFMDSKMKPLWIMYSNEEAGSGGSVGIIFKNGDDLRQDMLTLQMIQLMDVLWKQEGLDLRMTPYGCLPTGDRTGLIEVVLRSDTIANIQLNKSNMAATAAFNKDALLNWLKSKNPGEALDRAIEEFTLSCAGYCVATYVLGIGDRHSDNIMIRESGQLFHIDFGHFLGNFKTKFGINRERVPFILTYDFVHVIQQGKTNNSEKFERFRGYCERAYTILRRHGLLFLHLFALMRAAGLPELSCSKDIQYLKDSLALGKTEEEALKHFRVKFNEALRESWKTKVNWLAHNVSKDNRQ
T1 sequence (P27986 whole entry partner): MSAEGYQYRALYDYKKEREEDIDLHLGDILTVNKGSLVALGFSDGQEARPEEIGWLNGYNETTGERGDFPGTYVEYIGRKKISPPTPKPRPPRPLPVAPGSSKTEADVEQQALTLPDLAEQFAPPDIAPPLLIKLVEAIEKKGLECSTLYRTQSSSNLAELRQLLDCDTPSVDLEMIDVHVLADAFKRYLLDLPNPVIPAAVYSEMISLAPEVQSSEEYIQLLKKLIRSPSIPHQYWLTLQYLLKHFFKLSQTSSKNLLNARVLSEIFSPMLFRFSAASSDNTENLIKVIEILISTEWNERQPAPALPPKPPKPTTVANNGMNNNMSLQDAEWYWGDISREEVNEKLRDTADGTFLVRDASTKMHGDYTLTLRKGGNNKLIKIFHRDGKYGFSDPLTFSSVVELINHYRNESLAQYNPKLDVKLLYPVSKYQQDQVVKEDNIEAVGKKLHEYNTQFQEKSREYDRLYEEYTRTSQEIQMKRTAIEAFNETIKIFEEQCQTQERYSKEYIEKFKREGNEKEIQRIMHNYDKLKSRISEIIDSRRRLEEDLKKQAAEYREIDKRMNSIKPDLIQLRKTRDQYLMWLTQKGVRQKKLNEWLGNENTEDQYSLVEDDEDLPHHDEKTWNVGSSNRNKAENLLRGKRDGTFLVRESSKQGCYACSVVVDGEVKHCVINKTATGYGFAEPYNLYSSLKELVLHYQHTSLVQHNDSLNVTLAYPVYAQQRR

Row | SMILES | pIC50
1 | O=c1c2cccn2nc([C@@H]2CCCN2c2ncnc3[nH]cnc23)n1-c1ccccc1 [Example 44, (S)-2-(1-(9H-Purin-6-yl)pyrrolidin-2-yl)-3-phenylpyrrolo[1,2-f][1,2,4]triazin-4(3H)-one] | 7.54
2 | C[C@H](Nc1ncnc(N)c1C#N)c1nn2cccc2c(=O)n1C1CCOCC1 [Example 136, (S)-4-Amino-6-(1-(4-oxo-3-(tetrahydro-2H-pyran-4-yl)-3,4-dihydropyrrolo[1,2-f][1,2,4]triazin-2-yl)ethylamino)pyrimidine-5-carbonitrile] | 7.62
3 | C[C@H](Nc1ncnc(N)c1C#N)c1nn2ccc(C#N)c2c(=O)n1-c1cc(Cl)cc(Cl)c1 [Example 104, (S)-2-(1-(6-Amino-5-cyanopyrimidin-4-ylamino)ethyl)-3-(3,5-dichlorophenyl)-4-oxo-3,4-dihydropyrrolo[1,2-f][1,2,4]triazine-5-carbonitrile] | 7.44
4 | C[C@H](Nc1ncnc2[nH]cnc12)c1nn2ccc(C(F)(F)F)c2c(=O)n1-c1cc(F)cc(F)c1 [Example 90, (S)-2-(1-(9H-Purin-6-ylamino)ethyl)-3-(3,5-difluorophenyl)-5-(trifluoromethyl)pyrrolo[1,2-f][1,2,4]triazin-4(3H)-one] | 8.15
5 | C[C@H](Nc1ncnc2[nH]cc(F)c12)c1nn2cccc2c(=O)n1-c1ccccc1 [Example 81, (S)-2-(1-(5-Fluoro-7H-pyrrolo[2,3-d]pyrimidin-4-ylamino)ethyl)-3-phenylpyrrolo[1,2-f][1,2,4]triazin-4(3H)-one] | 8.05
6 | CC[C@H](Nc1ncnc2[nH]cnc12)c1nn2cccc2c(=O)n1-c1ccccc1 [Example 15, (S)-2-(1-(9H-Purin-6-ylamino)propyl)-3-phenylpyrrolo[1,2-f][1,2,4]triazin-4(3H)-one] | 7.74
7 | CCCNC(=O)c1ccn2nc([C@H](C)Nc3ncnc(N)c3C#N)n(-c3ccccc3)c(=O)c12 [Example 152, (S)-2-(1-(6-Amino-5-cyanopyrimidin-4-ylamino)ethyl)-4-oxo-3-phenyl-N-propyl-3,4-dihydropyrrolo[1,2-f][1,2,4]triazine-5-carboxamide] | 6.13
8 | Nc1nc(N2CCC[C@H]2c2nn3cccc3c(=O)n2-c2ccccc2)c2nc[nH]c2n1 [Example 56, (S)-2-(1-(2-Amino-9H-purin-6-yl)pyrrolidin-2-yl)-3-phenyl pyrrolo[1,2-f][1,2,4]triazin-4(3H)-one] | 7.82
9 | C[C@H](Nc1ncnc(N)c1C#N)c1nn2ccc(Br)c2c(=O)n1-c1cccc(C(F)(F)F)c1 [Example 169, (S)-4-Amino-6-(1-(5-bromo-4-oxo-3-(3-(trifluoromethyl)phenyl)-3,4-dihydropyrrolo[1,2-f][1,2,4]triazin-2-yl)ethylamino)pyrimidine-5-carbonitrile] | 8.22
10 | C[C@H](Nc1ncnc(N)c1C#N)c1nn2ccc(CN3CCOCC3)c2c(=O)n1-c1ccccc1 [Example 122, (S)-4-Amino-6-(1-(5-(morpholinomethyl)-4-oxo-3-phenyl-3,4-dihydropyrrolo[1,2-f][1,2,4]triazin-2-yl)ethylamino)pyrimidine-5-carbonitrile] | 5.53
11 | CC[C@H](Nc1nc(N)nc2[nH]cnc12)c1nn2cccc2c(=O)n1-c1ccccc1 [Example 17, (S)-2-(1-(2-Amino-9H-purin-6-ylamino)propyl)-3-phenylpyrrolo[1,2-f][1,2,4]triazin-4(3H)-one] | 8.05

Same assay, conditions: recombinant PI3 Kd 0.60 nM, PIP2 2 μM, ATP 20 μM, 8 min incubation

Row | SMILES | pIC50
12 | Cc1ccccc1-n1c(CSc2ncnc3[nH]cnc23)nn2ccc(C)c2c1=O [Example 11, 2-((9H-Purin-6-ylthio)methyl)-5-methyl-3-o-tolylpyrrolo[1,2-f][1,2,4]triazin-4(3H)-one] | 6.92
